Data published in US10160747B2, “Compounds and methods for kinase modulation, and indications therefor” (Plexxikon Inc., priority 2016, dated 2018).

Columns and labels:
[1] = target: T1, FLT3-ITD (Homo sapiens, UniProt P36888); assay: FLT3-ITD recombinant enzyme kinase assay (AlphaScreen); assay type: biochemical; settings: 8 pt; read-out: FLT3_ITD 8 pt: IC50
T1 sequence (P36888 1-993): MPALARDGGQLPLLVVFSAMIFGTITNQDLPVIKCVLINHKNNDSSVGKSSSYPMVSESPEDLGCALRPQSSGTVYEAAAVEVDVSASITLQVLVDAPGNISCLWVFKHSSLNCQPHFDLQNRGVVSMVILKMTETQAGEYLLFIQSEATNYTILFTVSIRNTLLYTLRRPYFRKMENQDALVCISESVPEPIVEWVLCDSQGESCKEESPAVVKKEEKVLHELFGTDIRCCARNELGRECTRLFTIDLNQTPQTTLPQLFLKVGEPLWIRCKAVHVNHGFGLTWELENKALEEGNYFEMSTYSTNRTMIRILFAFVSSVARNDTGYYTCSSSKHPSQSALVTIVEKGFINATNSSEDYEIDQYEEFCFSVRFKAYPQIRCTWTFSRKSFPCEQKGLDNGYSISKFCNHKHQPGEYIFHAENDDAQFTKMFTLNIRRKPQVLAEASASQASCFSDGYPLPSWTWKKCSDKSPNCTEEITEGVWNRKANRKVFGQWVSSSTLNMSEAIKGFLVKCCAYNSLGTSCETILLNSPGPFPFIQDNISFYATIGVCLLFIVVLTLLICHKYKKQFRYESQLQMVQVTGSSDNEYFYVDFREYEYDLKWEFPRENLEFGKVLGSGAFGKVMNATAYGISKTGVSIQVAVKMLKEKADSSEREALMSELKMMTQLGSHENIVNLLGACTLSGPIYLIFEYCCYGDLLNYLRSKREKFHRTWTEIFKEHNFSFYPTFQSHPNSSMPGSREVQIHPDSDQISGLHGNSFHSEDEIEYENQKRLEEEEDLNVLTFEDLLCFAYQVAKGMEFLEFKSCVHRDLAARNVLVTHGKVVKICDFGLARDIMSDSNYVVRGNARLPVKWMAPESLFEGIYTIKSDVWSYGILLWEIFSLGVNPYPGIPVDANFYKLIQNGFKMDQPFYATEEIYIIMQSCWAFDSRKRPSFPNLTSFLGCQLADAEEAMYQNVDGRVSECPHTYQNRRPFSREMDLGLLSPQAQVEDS
Method: In order to determine the effect of compounds on FLT3 catalytic activity, kinase assays using recombinant enzymes and AlphaScreen® technology have been established. The catalytic activity of c-kit activity was also measured to determine selectivity of the compounds. When the kinases are catalytically active, they phosphorylate a biotinylated peptide substrate on tyrosine residues. Using AlphaScreen® technology, the ability of the compounds to affect the catalytic activity of the kinases can be measured quantitatively. The peptide substrate is immobilized by the AlphaScreen® Streptavidin Donor beads and, upon phosphorylation by a tyrosine kinase, can bind to AlphaScreen® Anti-Phosphotyrosine (PY20) Acceptor beads. Upon excitation of these beads with laser light at 680 nm, singlet oxygen is produced. This singlet oxygen is rapidly quenched, unless the AlphaScreen® Anti-Phosphotyrosine (PY20) Acceptor beads are in close proximity, in which case a proximity signal can be measured at 580 nm. In the presence of catalytic activity, there is a very strong proximity signal. Selective kinase inhibitors affect a decrease in this proximity signal through a decrease in tyrosine phosphorylation of the peptide substrate.
The assay was performed as summarized below.
Poly (Glu4-Tyr) Peptide, biotin conjugate [Biotin-GG(EEEEY)10EE] (SEQ ID NO: 4)
Final concentration=30 nM
Adenosine Triphosphate (ATP)
Final concentration for IC50 determination=10 μM (FLT3-D835Y or FLT3-ITD) or 100 μM (c-KIT)
AlphaScreen® Phosphotyrosine (PY20) Assay Kit
Final concentration=10 μg/mL
Dilute compounds in DMSO to 20× final concentration.
Add 1 μL of compound to each well of 384 well reaction plate (Perkin Elmer #6005359).
Mix enzyme and Poly (Glu4-Tyr) Peptide substrate at 1.33× final concentration in assay buffer.
Mix ATP at 5× final concentration in assay buffer.
Add 15 μL enzyme/substrate mixture to the reaction plate.
Add 4 μL of ATP to the reaction plate.
Mix Streptavidin Donor beads at 6× final concentration in Stop/Detection buffer.
Add 5 μL Streptavidin Donor beads to the reaction plate. Centrifuge 1 minute, shake to mix, and incubate at room temperature for 20 minutes.
Mix Anti-Phosphotyrosine (PY20) Acceptor beads at 6× final concentration in Stop/Detection buffer.
Add 5 μL Anti-Phosphotyrosine (PY20) beads to the reaction plate.
Centrifuge 1 minute, shake to mix, and incubate at room temperature for 60 minutes.
Read plate on Wallac EnVision™ 2103 Multilabel Reader.

[2] = target: T2, c-KIT (Homo sapiens, UniProt P10721); assay: c-KIT recombinant enzyme kinase assay (AlphaScreen); assay type: biochemical; settings: 100 ATP, 8 pt
T2 construct: purchased Millipore 14-559K
T2 sequence (P10721 26-976): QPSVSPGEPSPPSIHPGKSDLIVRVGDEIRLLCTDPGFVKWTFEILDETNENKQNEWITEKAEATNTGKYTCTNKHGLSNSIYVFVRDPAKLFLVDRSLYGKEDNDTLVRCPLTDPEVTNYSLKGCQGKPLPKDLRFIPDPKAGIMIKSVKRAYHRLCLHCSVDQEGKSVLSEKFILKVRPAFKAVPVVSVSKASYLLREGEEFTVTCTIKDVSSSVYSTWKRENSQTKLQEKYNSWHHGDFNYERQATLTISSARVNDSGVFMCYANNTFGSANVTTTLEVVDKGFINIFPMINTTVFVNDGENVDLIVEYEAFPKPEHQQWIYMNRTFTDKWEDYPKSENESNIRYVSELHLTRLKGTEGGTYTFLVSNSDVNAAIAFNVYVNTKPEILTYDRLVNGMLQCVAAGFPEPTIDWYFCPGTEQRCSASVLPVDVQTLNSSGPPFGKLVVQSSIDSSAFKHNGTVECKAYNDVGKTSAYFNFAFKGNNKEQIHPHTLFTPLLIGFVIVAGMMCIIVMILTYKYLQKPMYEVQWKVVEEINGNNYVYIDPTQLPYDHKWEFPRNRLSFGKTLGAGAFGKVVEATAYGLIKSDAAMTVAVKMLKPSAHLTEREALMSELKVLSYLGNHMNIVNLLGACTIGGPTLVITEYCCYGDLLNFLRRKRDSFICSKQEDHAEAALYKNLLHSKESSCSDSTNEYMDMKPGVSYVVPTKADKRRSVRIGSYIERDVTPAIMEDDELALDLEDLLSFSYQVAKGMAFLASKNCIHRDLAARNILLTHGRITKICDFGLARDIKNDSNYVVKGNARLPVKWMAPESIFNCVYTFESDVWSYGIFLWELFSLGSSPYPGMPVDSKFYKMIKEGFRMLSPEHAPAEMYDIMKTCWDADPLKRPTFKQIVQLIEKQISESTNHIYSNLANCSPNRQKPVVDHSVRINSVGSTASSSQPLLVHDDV
In short: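 Recombinant enzyme phosphorylated biotinylated poly(Glu4-Tyr) peptide (30 nM final) with ATP at 10 μM for FLT3-ITD and FLT3-D835Y or 100 μM for c-KIT. Phosphopeptide was detected by AlphaScreen with streptavidin donor and anti-phosphotyrosine (PY20) acceptor beads (10 μg/mL), read at 580 nm, for IC50 determination.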

SMILES | IC50 [1] [µM] | IC50 [2] [µM]
N#Cc1cc(-c2cc3cc(-c4ccc(CC(=O)Nc5cncc(C(F)(F)F)c5)cc4F)cnc3[nH]2)ccn1 [Compound P-0199, 2-[4-[2-(2-cyano-4-pyridyl)-1H-pyrrolo[2,3-b]pyridin-5-yl]-3-fluoro-phenyl]-N-[5-(trifluoromethyl)-3-pyridyl]acetamide] | 0.0001 to 10 | 0.0001 to 10
COc1ncc(NC(=O)Cc2ccc(-c3cnc(Nc4cn(C)cn4)nc3)cc2F)cc1C(F)(F)F [Compound P-0101, 2-[2-fluoro-4-[2-[(1-methylimidazol-4-yl)amino]pyrimidin-5-yl]phenyl]-N-[6-methoxy-5-(trifluoromethyl)-3-pyridyl]acetamide] | 0.0001 to 10 | 0.0001 to 10
Cn1cc(Nc2ncc(-c3ccc(CC(=O)Nc4ccc(C(F)(F)F)nc4)c(F)c3)cn2)cn1 [Compound P-0110, 2-[2-fluoro-4-[2-[(1-methylpyrazol-4-yl)amino]pyrimidin-5-yl]phenyl]-N-[6-(trifluoromethyl)-3-pyridyl]acetamide] | 0.0001 to 10 | 0.0001 to 10
Cn1cc(Nc2ncc(-c3ccc(CC(=O)Nc4cccnc4)cc3)cn2)cn1 [Compound P-0131, 2-[4-[2-[(1-methylpyrazol-4-yl)amino]pyrimidin-5-yl]phenyl]-N-(3-pyridyl)acetamide] | 0.0001 to 10 | 0.0001 to 10
Cn1cnc(Nc2ncc(-c3ccc(CC(=O)Nc4cncc(C(F)(F)F)c4)cc3)cn2)c1 [Compound P-0167] | 0.0001 to 10 | 0.0001 to 10
COc1ccc(-c2cc3cc(-c4ccc(CC(=O)Nc5cncc(C(F)(F)F)c5)cc4F)cnc3[nH]2)cn1 [Compound P-0196, 2-[3-fluoro-4-[2-(6-methoxy-3-pyridyl)-1H-pyrrolo[2,3-b]pyridin-5-yl]phenyl]-N-[5-(trifluoromethyl)-3-pyridyl]acetamide] | 0.0001 to 10 | 0.0001 to 10
Cn1cc(Nc2ncc(-c3ccc(CC(=O)Nc4cc(C(F)(F)F)ncn4)cc3)cn2)cn1 [Compound P-0135, 2-[4-[2-[(1-methylpyrazol-4-yl)amino]pyrimidin-5-yl]phenyl]-N-[6-(trifluoromethyl)pyrimidin-4-yl]acetamide] | 0.0001 to 10 | 0.0001 to 10
Cn1cnc(Nc2ncc(-c3ccc(CC(=O)Nc4cc(C(C)(F)F)ccn4)cc3)cn2)c1 [Compound P-0169, N-[4-(1,1-difluoroethyl)-2-pyridyl]-2-[4-[2-[(1-methylimidazol-4-yl)amino]pyrimidin-5-yl]phenyl]acetamide] | 0.0001 to 10 | 0.0001 to 10
Cn1cc(Nc2ncc(-c3ccc(CC(=O)Nc4ccc(C(F)(F)F)nc4)cc3)cn2)cn1 [Compound P-0095, 2-[4-[2-[(1-methylpyrazol-4-yl)amino]pyrimidin-5-yl]phenyl]-N-[6-(trifluoromethyl)-3-pyridyl]acetamide] | 0.0001 to 10 | 0.0001 to 10
N#Cc1cc(-c2cc3cc(-c4ccc(CC(=O)Nc5cc(C(F)(F)F)ccn5)cc4F)cnc3[nH]2)ccn1 [Compound P-0194, 2-[4-[2-(2-cyano-4-pyridyl)-1H-pyrrolo[2,3-b]pyridin-5-yl]-3-fluoro-phenyl]-N-[4-(trifluoromethyl)-2-pyridyl]acetamide] | 0.0001 to 10 | 0.0001 to 10
O=C(Cc1ccc(-c2cnc3[nH]c(-c4ccccc4)cc3c2)cn1)Nc1ccnc(C(F)(F)F)c1 [Compound P-0005, 2-[5-(2-phenyl-1H-pyrrolo[2,3-b]pyridin-5-yl)-2-pyridyl]-N-[2-(trifluoromethyl)-4-pyridyl]acetamide] | 0.0001 to 10 | 0.0001 to 10
N#Cc1cc(-c2cc3cc(-c4ccc(CC(=O)Nc5ccnc(C(F)(F)F)c5)nc4)cnc3[nH]2)ccn1 [Compound P-0182, 2-[5-[2-(2-cyano-4-pyridyl)-1H-pyrrolo[2,3-b]pyridin-5-yl]-2-pyridyl]-N-[2-(trifluoromethyl)-4-pyridyl]acetamide] | 0.0001 to 10 | 0.0001 to 10
Cn1cc(Nc2ncc(-c3ccc(CC(=O)Nc4ccnc(C5CC5)c4)c(F)c3)cn2)cn1 [Compound P-0098, N-(2-cyclopropyl-4-pyridyl)-2-[2-fluoro-4-[2-[(1-methylpyrazol-4-yl)amino]pyrimidin-5-yl]phenyl]acetamide] | 0.0001 to 10 | 0.0001 to 10
Cn1cc(Nc2ncc(-c3ccc(CC(=O)Nc4cccc(C(C)(C)C#N)c4)cc3)cn2)cn1 [Compound P-0158, N-[3-(1-cyano-1-methyl-ethyl)phenyl]-2-[4-[2-[(1-methylpyrazol-4-yl)amino]pyrimidin-5-yl]phenyl]acetamide] | 0.0001 to 10 | 0.0001 to 10
Cn1cc(Nc2ncc(-c3ccc(CC(=O)Nc4ccc(C(C)(C)C)nc4)cc3)cn2)cn1 [Compound P-0143, N-(6-tert-butyl-3-pyridyl)-2-[4-[2-[(1-methylpyrazol-4-yl)amino]pyrimidin-5-yl]phenyl]acetamide] | 0.0001 to 10 | 0.0001 to 10
Cn1cc(Nc2ncc(-c3ccc(CC(=O)Nc4cnc(Cl)c(C(F)(F)F)c4)cc3)cn2)cn1 [Compound P-0145, N-[6-chloro-5-(trifluoromethyl)-3-pyridyl]-2-[4-[2-[(1-methylpyrazol-4-yl)amino]pyrimidin-5-yl]phenyl]acetamide] | 0.0001 to 10 | 0.0001 to 10
Cn1cc(Nc2ncc(-c3ccc(CC(=O)Nc4ccnc(S(C)(=O)=O)c4)cc3)cn2)cn1 [Compound P-0154, 2-[4-[2-[(1-methylpyrazol-4-yl)amino]pyrimidin-5-yl]phenyl]-N-(2-methylsulfonyl-4-pyridyl)acetamide] | 0.0001 to 10 | 0.0001 to 10
Cn1cnc(Nc2ncc(-c3ccc(CC(=O)Nc4cnc(Cl)c(C(F)(F)F)c4)c(F)c3)cn2)c1 [Compound P-0100, N-[6-chloro-5-(trifluoromethyl)-3-pyridyl]-2-[2-fluoro-4-[2-[(1-methylimidazol-4-yl)amino]pyrimidin-5-yl]phenyl]acetamide] | 0.0001 to 10 | 0.0001 to 10
COCCn1cc(Nc2ncc(-c3ccc(CC(=O)Nc4cncc(C(F)(F)F)c4)cc3)cn2)cn1 [Compound P-0178, 2-[4-[2-[[1-(2-methoxyethyl)pyrazol-4-yl]amino]pyrimidin-5-yl]phenyl]-N-[5-(trifluoromethyl)-3-pyridyl]acetamide] | 0.0001 to 10 | 0.0001 to 10
Cn1cnc(Nc2ncc(-c3ccc(CC(=O)Nc4cnc(F)c(C(C)(F)F)c4)cc3)cn2)c1 [Compound P-0168, N-[5-(1,1-difluoroethyl)-6-fluoro-3-pyridyl]-2-[4-[2-[(1-methylimidazol-4-yl)amino]pyrimidin-5-yl]phenyl]acetamide] | 0.0001 to 10 | 0.0001 to 10
